Assay [1] concerns P. aeruginosa R1023. Put plainly: In vivo efficacy, whole-body infected mouse model, Ceftazidime-resistant bacteria.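 On Survival rate: each column one dose of 5 10 20 or 40 mg/kg given sc at 1 h and 4 h.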 The conditions noted are these: for Survival rate: subcutaneous 1 h and 4 h after infection, P. aeruginosa R1023 (2 × 10^6 CFU/mouse), four days. Details: species or system ICR mouse. How it is done:
(§1) Pharmaceutical efficacy of the cephalosporin derivative compounds according to the present invention was evaluated in a whole-body infected mouse model. Tables 3 and 4 show survival rate and ED50 values for the two compounds with excellent antibacterial activity with regard to an infected mouse by a drug-sensitive bacteria and a drug-resistant bacteria.
(§2) Test animals: 3 week old male ICR mouse, weight 18˜22 g; 5 mice/group.
(§3) Lab conditions: Temperature of 23±2° C.; humidity of 55±20%.
(§4) Administration method: Inducing whole-body infection by bacterial solution followed by subcutaneous injection (0.2 mL) after 1 hour and 4 hours.
(§5) Test method: Cultured bacteria were diluted with 0.9% NaCl to prepare a bacterial solution having a concentration that is 5 to 10 times of […]. 0.5 mL of bacterial solution was injected through abdominal cavity to induce whole-body infection. Test compounds were administered in four different amounts, which were designed considering in vitro MIC values of the test bacteria. After 1 hour and 4 hours, the four different amounts of the test compounds were subcutaneously administered. Survival rates were measured for four days and ED50 values were calculated according to the Probit method.

The subject of assay [2] is P. aeruginosa 1912E. Description: In vivo efficacy, whole-body infected mouse model, Ceftazidime-sensitive bacteria. Details: species or system ICR mouse. The conditions noted are these: P. aeruginosa 1912E (2 × 10^6CFU/mouse); for Survival rate: four days. How it is done:
as §1, §2, §3, §4, §5

Each structure is given as a SMILES string.

Turning to `C[C@H](O/N=C(\C(=O)N[C@@H]1C(=O)N2C(C(=O)[O-])=C(C[n+]3cnc(N)c(NCCNC(=O)c4cc(=O)c(O)cn4O)c3)CSC12)c1nc(N)sc1Cl)C(=O)O` (some centres unmarked) [Compound 4], the ED50 (as a rule, the dose at which the effect has come halfway, by size or by number of responders) in assay [1] (Pseudomonas aeruginosa, sc, Probit method, subcutaneous, mouse infected by Ceftazidime-resistant P. aeruginosa R1023) was 10 mg/kg. For the same compound, the Survival rate in assay [1] (administered amount 5 mg/kg) amounted to 40%; in assay [1] (administered amount 10 mg/kg), 40%; in assay [1] (administered amount 20 mg/kg) it was 80%; in assay [1] (administered amount 40 mg/kg), 100%. In assay [1] (whole-body infected mice by the drug-resistant bacteria), the “pharmaceutical efficacy (in words)” value is listed as “much greater than that of Ceftazidime”.
In the case of `CC(C)(O/N=C(\C(=O)N[C@@H]1C(=O)N2C(C(=O)[O-])=C(/C=C/C[n+]3cnc(N)c(NCCNC(=O)c4cc(=O)c(O)cn4O)c3)CSC12)c1csc(N)n1)C(=O)O` (some centres unmarked) [Compound 8], the Survival rate in assay [2] (2.5 mg/kg subcutaneous after 1 hour and 4 hours) is listed as 60%; in assay [2] (5 mg/kg subcutaneous after 1 hour and 4 hours), 80%; in assay [2] (10 mg/kg subcutaneous after 1 hour and 4 hours), 100%; in assay [2] (20 mg/kg subcutaneous after 1 hour and 4 hours), 100%. In assay [2] (Pseudomonas aeruginosa, sc, subcutaneous, Probit method), this compound showed an ED50 of 1.25 mg/kg.

The values above are taken from US9630977B2, “Cephalosporin derivatives and pharmaceutical compositions thereof” (Legochem Biosciences, Inc., priority 2011, dated 2017).
